Literature values in patent US20240033221A1, “LONG-ACTING BUPIVACAINE MICROSPHERE FORMULATIONS” (Scienture, Inc., priority 2020, published 2024).
Counter-ions that a name gives are not always drawn.

Conditions: dental injections

**Q.** Which duration of action does the source give for CCCCN1CCCCC1C(=O)Nc1c(C)cccc1C (centres unmarked) [bupivacaine HCl, bupivacaine hydrochloride] here?
**A.** 2 to 8 h

**Q.** What about the onset of action of the same compound?
**A.** 2 to 10 min
